The subject of this assay is MCF7. Nature of the assay: Cytotoxicity against human MCF7 cells after 48 hrs by SRB assay. The assay is classed as functional, cell-based.

Structures are written as SMILES.

As to `c1ccc(CSc2nnc(-c3ccc(Nc4ccccc4-c4nnc(SCc5ccccc5)o4)cc3)o2)cc1`, inhibition was half-maximal at 730 nM (IC50).

In the case of `CCNc1nnc(-c2ccc(Nc3ccccc3-c3nnc(NCC)s3)cc2)s1`, the IC50 was found to be 940 nM.

Regarding `COc1ccc(/C=N/NC(=O)c2ccc(Nc3ccccc3C(=O)N/N=C/c3ccc(OC)c(OC)c3)cc2)cc1OC`, it took 810 nM to reach half-maximal inhibition (IC50).

Molecule `Sc1nnc(-c2ccc(Nc3ccccc3-c3nnc(S)o3)cc2)o1` displayed an IC50 of 2000 nM.

Take `C=CCSc1nnc(-c2ccc(Nc3ccccc3-c3nnc(SCC=C)o3)cc2)o1`: it took 1050 nM to reach half-maximal inhibition (IC50).

`CCn1c(S)nnc1-c1ccc(Nc2ccccc2-c2nnc(S)n2CC)cc1` returned an IC50 of 2380 nM.

In turn, `CN(C)c1ccc(/C=N/NC(=O)c2ccc(Nc3ccccc3C(=O)N/N=C/c3ccc(N(C)C)cc3)cc2)cc1` had an IC50 of 1230 nM.

Usually IC50 stands for the midpoint of a concentration-inhibition curve.

These data come from ChEMBL document CHEMBL1240436, “Synthesis and biological evaluation of novel 2,4'-bis substituted diphenylamines as anticancer agents and potential epidermal growth factor receptor tyrosine kinase inhibitors” (Eur J Med Chem, 2010).
